This is an account of results in patent publication US11358962B2, “2-hetaryl imidazol[1,2-a]pyridine derivatives” (Hoffmann-La Roche Inc., priority 2013, dated 2022).

The subject of the assay is native tau aggregates. In words: TAU radioligand in vitro displacement assay ([3H]T808, autoradiography on human AD brain sections). As to conditions: radioligand [3H]T808 10 nM; for % displacement of [3H]T808 (10 nM) at 10 nM: compound 10 nM; for % displacement of [3H]T808 (10 nM) at 1 uM: compound 1 uM. Type of assay: binding. The text has this:
TAU Radioligand-In-Vitro Displacement Assay
This in vitro binding assay assesses the affinity of compounds for native tau aggregates.
AD human brains are purchased from Banner Sun Health Research Institute (Sun City, Ariz., USA). Pathological diagnosis of AD is made according to standard NIA-Reagan Institute criteria based on neuropathological data. The radioligand [^3H]T808 was synthesized in-house ([^3H]-2-[4-(2-Fluoro-ethyl)-piperidin-1-yl]-benzo[4,5]imidazo[1,2-a]pyrimidine, radiochemical purity 99.0%). As a reference cold T808 is used (2-[4-(2-Fluoro-ethyl)-piperidin-1-yl]-benzo[4,5]imidazo[1,2-a]pyrimidine). For the autoradiography FujiFilm Imaging Plates (BAS-IP TR 2025) are exposed to the sections and read with a FujiFilm IP reader (BAS-5000).
Ten μm thick human AD brain sections are generated with a cryostat (Leica CM3050) at −17° C. chamber temperature and −15° C. object temperature. Sections are transferred to Histobond+ microscope slides (Marienfeld Laboratory Glasware). After drying for 3 hours at room temperature the sections are stored at −20° C. The sections are incubated with the radioligand (10 nM) and the respective cold compound (at various concentrations) in 50 mM Tris buffer, pH 7.4 at room temperature for 30 min. After washing 3× 10 min at 4° C. in 50 mM Tris buffer, pH 7.4 and 3 quick dips in H2O dist. at 4° C. the sections are dried at 4° C. for 3 h. The sections are placed in a FujiFilm Cassette (BAS 2025), exposed with an Imaging Plate for five days and afterwards scanned with a resolution of […].
The signal intensity (Dens−PSL/mm2) in the region of interest (ROI) of the autoradiogram is quantified with the software MCID analysis (version 7.0, Imaging Research Inc.). The specific binding (SB) of [^3H]T808 binding in absence or in presence of a compound is calculated by subtracting the non-specific binding signal in the white matter, thus yielding SB[3H]T808 only and SBcompound. The % displacement by the various compounds is calculated as following: % displacement=100−(SBcompound/SB[3H]T808 only)*100. Validation Data
In each experiment cold T808 is used as a positive internal control. Co-incubation of equimolar amounts of hot and cold T808 is expected to reduce specific binding by approximately 50%.

Turning to “2-Benzo[1,3]dioxol-5-yl-7-[4-(2-fluoro-ethyl)-piperidin-1-yl]-imidazo[1,2-a]pyridine [Example 21]”, the “% displacement of [3H]T808 (10 nM) at 10 nM” value (from here on “% displacement … at 10 nM”) is reported as 7%.

Take `COc1ccc(-c2cn3ccc(N4CC[C@H](F)C4)cc3n2)cc1` [6 (S), (S)-7-(3-Fluoropyrrolidin-1-yl)-2-(4-methoxyphenyl)imidazo[1,2-a]pyridine]: the “% displacement … at 10 nM” value is reported as 8%.

For `COc1ccc(-c2cn3ccc(N4CC[C@@H](F)C4)cc3n2)cc1` [7 (R), (R)-7-(3-Fluoropyrrolidin-1-yl)-2-(4-methoxyphenyl)imidazo[1,2-a]pyridine], the “% displacement … at 10 nM” value is listed as 11%.

With `FCCNc1ccn2cc(-c3ccccc3)nc2c1` [Example 1, N-(2-Fluoroethyl)-2-phenylimidazo[1,2-a]pyridin-7-amine 2,2,2-trifluoroacetate], the “% displacement … at 10 nM” value is given as 40% and the “% displacement of [3H]T808 (10 nM) at 1 uM” value (shortened to “% displacement … at 1 uM”) was found to be 93%.

As to `CN(CCF)c1ccn2cc(-c3ccccc3)nc2c1` [Example 2, N-(2-Fluoroethyl)-N-methyl-2-phenylimidazo[1,2-a]pyridin-7-amine], the “% displacement … at 10 nM” value is on record as 50% and the “% displacement … at 1 uM” value came out at 90%.

As for `CN(C)c1ccn2cc(-c3ccccc3)nc2c1` [Example 3, N,N-Dimethyl-2-phenylimidazo[1,2-a]pyridin-7-amine], the “% displacement … at 10 nM” value is on record as 59% and the “% displacement … at 1 uM” value was 92%.

For the molecule `CNc1ccn2cc(-c3ccccc3)nc2c1` [Example 4, N-Methyl-2-phenylimidazo[1,2-a]pyridin-7-amine], the “% displacement … at 10 nM” value was 61% and the “% displacement … at 1 uM” value is reported as 93%.

For the molecule `FC1CCN(c2ccn3cc(-c4ccccc4)nc3c2)CC1` [Example 5, 7-(4-Fluoropiperidin-1-yl)-2-phenylimidazo[1,2-a]pyridine], the “% displacement … at 10 nM” value is listed as 21% and the “% displacement … at 1 uM” value is recorded as 82%.

Regarding `COc1cccc(-c2cn3ccc(N4CCCCC4)cc3n2)c1` [Example 8, 2-(3-Methoxy-phenyl)-7-piperidin-1-yl-imidazo[1,2-a]pyridine], the “% displacement … at 10 nM” value is 25%.

`COc1cccc(-c2cn3ccc(N4CCCC4)cc3n2)c1` [Example 9, 2-(3-Methoxy-phenyl)-7-pyrrolidin-1-yl-imidazo[1,2-a]pyridine]: the “% displacement … at 10 nM” value turned out to be 33%.

For the molecule `COc1cccc(-c2cn3ccc(N4CCOCC4)cc3n2)c1` [Example 10, 2-(3-Methoxy-phenyl)-7-morpholin-4-yl-imidazo[1,2-a]pyridine], the “% displacement … at 10 nM” value came out at 27%.

For the molecule `COc1ccc(-c2cn3ccc(N4CCCC4)cc3n2)cc1` [Example 11, 2-(4-Methoxy-phenyl)-7-pyrrolidin-1-yl-imidazo[1,2-a]pyridine], the “% displacement … at 10 nM” value is recorded as 27%.

For the molecule `COc1ccc(-c2cn3ccc(N4CCCCC4)cc3n2)cc1` [Example 12, 2-(4-Methoxy-phenyl)-7-piperidin-1-yl-imidazo[1,2-a]pyridine], the “% displacement … at 10 nM” value was determined as 30%.

Take `COc1ccc(-c2cn3ccc(N4CCOCC4)cc3n2)cc1` [Example 13, 2-(4-Methoxy-phenyl)-7-morpholin-4-yl-imidazo[1,2-a]pyridine]: the “% displacement … at 10 nM” value was 40%.

With `COc1ccc(-c2cn3ccc(N4CCC(F)CC4)cc3n2)cc1` [Example 14, 7-(4-Fluoro-piperidin-1-yl)-2-(4-methoxy-phenyl)-imidazo[1,2-a]pyridine], the “% displacement … at 10 nM” value was 26%.

For `COc1ccc(-c2cn3ccc(N4CCN(CCF)CC4)cc3n2)cc1` [Example 15, 7-[4-(2-Fluoro-ethyl)-piperazin-1-yl]-2-(4-methoxy-phenyl)-imidazo[1,2-a]pyridine], the “% displacement … at 10 nM” value is 33%.

As to `CN(C)c1ccc(-c2cn3ccc(N(C)C)cc3n2)cc1` [Example 16, [2-(4-Dimethylamino-phenyl)-imidazo[1,2-a]pyridin-7-yl]-dimethyl-amine], the “% displacement … at 10 nM” value was found to be 29%.

On to `CN(C)c1ccn2cc(-c3ccc(OCCF)cc3)nc2c1` [Example 17, {2-[4-(2-Fluoro-ethoxy)-phenyl]-imidazo[1,2-a]pyridin-7-yl}-dimethyl-amine], for which the “% displacement … at 10 nM” value was 37%.

As for `CN(C)c1ccn2cc(-c3ccc(OCF)cc3)nc2c1` [Example 18, [2-(4-Fluoromethoxy-phenyl)-imidazo[1,2-a]pyridin-7-yl]-dimethyl-amine], the “% displacement … at 10 nM” value stood at 46%.

Turning to `CNc1ccn2cc(-c3ccc4c(c3)OCCO4)nc2c1` [Example 19, [2-(2,3-Dihydro-benzo[1,4]dioxin-6-yl)-imidazo[1,2-a]pyridin-7-yl]-methyl-amine], the “% displacement … at 10 nM” value came to 37%.

For the molecule `COc1ccc(-c2cn3ccc(N(C)C)cc3n2)cc1` [Example 20, [2-(4-Methoxy-phenyl)-imidazo[1,2-a]pyridin-7-yl]-dimethyl-amine], the “% displacement … at 10 nM” value came to 35%.

In the case of `CN(C)c1ccn2cc(-c3ccc4c(c3)OCCO4)nc2c1` [Example 22, [2-(2,3-Dihydro-benzo[1,4]dioxin-6-yl)-imidazo[1,2-a]pyridin-7-yl]-dimethyl-amine], the “% displacement … at 10 nM” value was 39%.

For the molecule `CN(CCF)c1ccn2cc(-c3ccc4c(c3)OCCO4)nc2c1` [Example 23, [2-(2,3-Dihydro-benzo[1,4]dioxin-6-yl)-imidazo[1,2-a]pyridin-7-yl]-(2-fluoro-ethyl)-methyl-amine], the “% displacement … at 10 nM” value worked out at 27%.

In the case of `COc1ccc(-c2cn3ccc(N4CCC4)cc3n2)cc1` [Example 24, 7-Azetidin-1-yl-2-(4-methoxy-phenyl)-imidazo[1,2-a]pyridine], the “% displacement … at 10 nM” value came out at 54%.

For `CNc1ccn2cc(-c3cccc(C)c3)nc2c1` [Example 25, N-Methyl-2-m-tolylimidazo[1,2-a]pyridin-7-amine], the “% displacement … at 10 nM” value worked out at 54%.

For the molecule `Cc1cccc(-c2cn3ccc(N(C)C)cc3n2)c1` [Example 26, N,N-Dimethyl-(2-m-tolyl-imidazo[1,2-a]pyridin-7-yl)-amine], the “% displacement … at 10 nM” value is on record as 53%.

Consider `Cc1ccc(-c2cn3ccc(N(C)C)cc3n2)cc1` [Example 27, N,N-Dimethyl-(2-p-tolyl-imidazo[1,2-a]pyridin-7-yl)-amine], for which the “% displacement … at 10 nM” value turned out to be 52%.

For `CNc1ccn2cc(-c3ccc(C)cc3)nc2c1` [Example 28, N-Methyl-(2-p-tolyl-imidazo[1,2-a]pyridin-7-yl)-amine], the “% displacement … at 10 nM” value is recorded as 57%.

As for `Cc1ccc(-c2cn3ccc(N(C)CCF)cc3n2)cc1` [Example 29, N-(2-Fluoroethyl)-N-methyl-(2-p-tolyl-imidazo[1,2-a]pyridin-7-yl)-amine], the “% displacement … at 10 nM” value is on record as 38%.

`CN(C)c1ccc(-c2cn3ccc(N(C)CCF)cc3n2)cc1` [Example 30, 2-(4-(Dimethylamino)phenyl)-N-(2-fluoroethyl)-N-methylimidazo[1,2-a]pyridin-7-amine]: the “% displacement … at 10 nM” value is reported as 23%.

In the case of `F[C@H]1CCN(c2ccn3cc(-c4ccccc4)nc3c2)C1` [Example 31, (S)-7-(3-Fluoropyrrolidin-1-yl)-2-phenyl-imidazo[1,2-a]pyridine], the “% displacement … at 10 nM” value is 31%.

Regarding `COc1cccc(-c2cn3ccc(N(C)C)cc3n2)c1` [Example 32, [2-(3-Methoxy-phenyl)-imidazo[1,2-a]pyridin-7-yl]-dimethyl-amine], the “% displacement … at 10 nM” value is 36%.

As for `FCCC1CCN(c2ccn3cc(-c4ccc5c(c4)OCCO5)nc3c2)CC1` [Example 33, 2-(2,3-Dihydro-benzo[1,4]dioxin-6-yl)-7-[4-(2-fluoro-ethyl)-piperidin-1-yl]-imidazo[1,2-a]pyridine], the “% displacement … at 10 nM” value is recorded as 5%.

In the case of `Cc1cccc(-c2cn3ccc(N(C)CCF)cc3n2)c1` [Example 34, (2-Fluoro-ethyl)-methyl-(2-m-tolyl-imidazo[1,2-a]pyridin-7-yl)-amine], the “% displacement … at 10 nM” value was 41%.

On to `Cc1cccc(-c2cn3ccc(N4CCOCC4)cc3n2)c1` [Example 35, 7-Morpholin-4-yl-2-m-tolyl-imidazo[1,2-a]pyridine], for which the “% displacement … at 10 nM” value was found to be 27%.

As to `Cc1ccc(-c2cn3ccc(N4CCOCC4)cc3n2)cc1` [Example 36, 7-Morpholin-4-yl-2-p-tolyl-imidazo[1,2-a]pyridine], the “% displacement … at 10 nM” value came to 23%.
